Where “and” joins values, the source holds several entries; their conditions need not be identical. Identical values can stand only once. HELM strings list units from the 5' end as sugar, base in round brackets, then linkage (d deoxyribose, r ribose, m 2'-O-methyl, p phosphodiester). Methylation of C is not given here. [moe] = 2'-O-(2-methoxyethyl) (MOE); [cEt] = constrained ethyl (cEt); [sp] = phosphorothioate linkage

This series addresses HBV. To be noted: ASO.

Take “RNA1{[moe](G)[sp].[moe](A)[sp].[moe](G)[sp].[moe](A)[sp].[moe](A)[sp].d(G)[sp].d(T)[sp].d(C)[sp].d(C)[sp].d(A)[sp].d(C)[sp].d(C)[sp].d(A)[sp].d(C)[sp].[moe](G)[sp].[moe](A)[sp].[moe](G)}$$$$V2.0”: the target mRNA inhibition (HepG2, 0.07 µM) was 20% and 13%.
“RNA1{[moe](A)[sp].[moe](G)[sp].[moe](G)[sp].d(A)[sp].d(G)[sp].d(T)[sp].d(T)[sp].d(C)[sp].d(C)[sp].d(G)[sp].d(C)[sp].d(A)[sp].d(G)[sp].[cEt](T)[sp].[cEt](A)[sp].[cEt](T)}$$$$V2.0”: the target mRNA inhibition (HepG2, 0.07 µM) is 59% and 58%.
On to “RNA1{[moe](T)[sp].[moe](G)[sp].[moe](C)[sp].d(A)[sp].d(G)[sp].d(A)[sp].d(G)[sp].d(G)[sp].d(T)[sp].d(G)[sp].d(A)[sp].d(A)[sp].d(G)[sp].[cEt](C)[sp].[cEt](G)[sp].[cEt](A)}$$$$V2.0”, for which, under “HepG2, 0.07 µM”, the target mRNA inhibition was 78% and 79%.
“RNA1{[moe](G)[sp].[cEt](A)[sp].[cEt](G)[sp].d(G)[sp].d(T)[sp].d(G)[sp].d(A)[sp].d(A)[sp].d(G)[sp].d(C)[sp].d(G)[sp].d(A)[sp].d(A)[sp].[cEt](G)[sp].[cEt](T)[sp].[moe](G)}$$$$V2.0” yielded a target mRNA inhibition (HepG2, 0.07 µM) of 71%.
On the same count and under the same terms, in the case of “RNA1{[moe](A)[sp].[moe](T)[sp].d(T)[sp].d(T)[sp].d(A)[sp].d(T)[sp].d(G)[sp].d(C)[sp].d(C)[sp].d(T)[sp].d(A)[sp].[moe](C)[sp].[moe](A)[sp].[moe](G)[sp].[moe](C)[sp].[moe](C)}$$$$V2.0” it was 36% and 25%; in that of “RNA1{[moe](A)[sp].[moe](G)[sp].[moe](A)[sp].d(G)[sp].d(G)[sp].d(T)[sp].d(G)[sp].d(A)[sp].d(A)[sp].d(G)[sp].d(C)[sp].d(G)[sp].[moe](A)[sp].[moe](A)[sp].[moe](G)[sp].[moe](T)}$$$$V2.0”, 51% and 44%; in that of “RNA1{[moe](A)[sp].[moe](T)[sp].[moe](T)[sp].d(T)[sp].d(A)[sp].d(T)[sp].d(G)[sp].d(C)[sp].d(C)[sp].d(T)[sp].d(A)[sp].d(C)[sp].[moe](A)[sp].[moe](G)[sp].[moe](C)[sp].[moe](C)}$$$$V2.0”, 38% and 47%.
On the same count and under the same terms, in the case of “RNA1{[moe](C)[sp].[cEt](T)[sp].[cEt](G)[sp].d(G)[sp].d(A)[sp].d(G)[sp].d(C)[sp].d(C)[sp].d(A)[sp].d(C)[sp].d(C)[sp].d(A)[sp].d(G)[sp].[cEt](C)[sp].[cEt](A)[sp].[moe](G)}$$$$V2.0” it was 60% and 45%; in that of “RNA1{[moe](G)[sp].[moe](C)[sp].d(A)[sp].d(C)[sp].d(T)[sp].d(A)[sp].d(G)[sp].d(T)[sp].d(A)[sp].d(A)[sp].d(A)[sp].[moe](C)[sp].[moe](T)[sp].[moe](G)[sp].[moe](A)[sp].[moe](G)[sp].[moe](C)}$$$$V2.0”, 75% and 78%; in that of “RNA1{[moe](G)[sp].[moe](T)[sp].d(G)[sp].d(C)[sp].d(A)[sp].d(G)[sp].d(A)[sp].d(G)[sp].d(G)[sp].d(T)[sp].d(G)[sp].[moe](A)[sp].[moe](A)[sp].[moe](G)[sp].[moe](C)[sp].[moe](G)[sp].[moe](A)}$$$$V2.0”, 70% and 66%.
Turning to “RNA1{[moe](T)[sp].[cEt](G)[sp].[cEt](A)[sp].d(G)[sp].d(G)[sp].d(C)[sp].d(C)[sp].d(C)[sp].d(A)[sp].d(C)[sp].d(T)[sp].d(C)[sp].d(C)[sp].[cEt](C)[sp].[cEt](A)[sp].[moe](T)}$$$$V2.0”, the target mRNA inhibition (HepG2, 0.07 µM) was 56% and 80%.
As to “RNA1{[moe](T)[sp].[cEt](C)[sp].d(C)[sp].d(A)[sp].d(C)[sp].d(C)[sp].d(A)[sp].d(C)[sp].d(G)[sp].d(A)[sp].d(G)[sp].d(T)[sp].[cEt](C)[sp].[moe](T)[sp].[cEt](A)[sp].[moe](G)}$$$$V2.0”, the target mRNA inhibition (HepG2, 0.07 µM) was 71% and 53%.
On to “RNA1{[moe](G)[sp].[moe](A)[sp].[moe](G)[sp].d(A)[sp].d(A)[sp].d(G)[sp].d(T)[sp].d(C)[sp].d(C)[sp].d(A)[sp].d(C)[sp].d(C)[sp].[moe](A)[sp].[moe](C)[sp].[moe](G)[sp].[moe](A)[sp].[moe](G)}$$$$V2.0”, for which the target mRNA inhibition (HepG2, 0.07 µM) was 31% and 28%.
Turning to “RNA1{[moe](C)[sp].[moe](C)[sp].[moe](G)[sp].d(C)[sp].d(A)[sp].d(G)[sp].d(T)[sp].d(A)[sp].d(T)[sp].d(G)[sp].d(G)[sp].d(A)[sp].[moe](T)[sp].[moe](C)[sp].[moe](G)[sp].[moe](G)}$$$$V2.0”, the target mRNA inhibition runs as follows: (HepG2, 0.0092593 µM) 0%; (HepG2, 0.0277778 µM) 23%; (HepG2, 0.07 µM) 75% and 76%; (HepG2, 0.0833333 µM) 56%; (HepG2, 0.25 µM) 79%.
On to “RNA1{[moe](C)[sp].[moe](G)[sp].[moe](T)[sp].[moe](G)[sp].[moe](C)[sp].[moe](A)[sp].d(G)[sp].d(A)[sp].d(G)[sp].d(G)[sp].d(T)[sp].d(G)[sp].d(A)[sp].d(A)[sp].d(G)[sp].[moe](C)[sp].[moe](G)}$$$$V2.0”, for which the target mRNA inhibition (HepG2, 0.07 µM) was 81% and 64%.
On to “RNA1{[moe](C)[sp].[cEt](C)[sp].d(A)[sp].d(C)[sp].d(T)[sp].d(G)[sp].d(A)[sp].d(A)[sp].d(C)[sp].d(A)[sp].d(A)[sp].d(A)[sp].[cEt](T)[sp].[moe](G)[sp].[cEt](G)[sp].[moe](C)}$$$$V2.0”, for which the target mRNA inhibition (HepG2, 0.07 µM) is 76% and 78%.
In the case of “RNA1{[moe](A)[sp].[moe](A)[sp].[moe](G)[sp].[cEt](C)[sp].[cEt](G)[sp].d(A)[sp].d(A)[sp].d(G)[sp].d(T)[sp].d(G)[sp].d(C)[sp].d(A)[sp].[cEt](C)[sp].[cEt](A)[sp].[moe](C)[sp].[moe](G)[sp].[moe](G)}$$$$V2.0”, the target mRNA inhibition is, setting by setting: (HepG2, 0.009375 µM) 23%; (HepG2, 0.01875 µM) 19%; (HepG2, 0.0375 µM) 39%; (HepG2, 0.075 µM) 49%; (HepG2, 0.15 µM) 66%; (HepG2, 0.3 µM) 75%.
Turning to “RNA1{[moe](A)[sp].[moe](G)[sp].[moe](A)[sp].[moe](G)[sp].[moe](G)[sp].d(T)[sp].d(G)[sp].d(A)[sp].d(A)[sp].d(G)[sp].d(C)[sp].d(G)[sp].d(A)[sp].d(A)[sp].[moe](G)[sp].[moe](T)}$$$$V2.0”, the target mRNA inhibition (HepG2, 0.07 µM) was 55% and 52%.
Turning to “RNA1{[moe](T)[sp].[moe](C)[sp].d(C)[sp].d(G)[sp].d(C)[sp].d(A)[sp].d(G)[sp].d(T)[sp].d(A)[sp].d(T)[sp].d(G)[sp].[moe](G)[sp].[moe](A)[sp].[moe](T)[sp].[moe](C)[sp].[moe](G)}$$$$V2.0”, the target mRNA inhibition (HepG2, 0.07 µM) is 70% and 62%.
The same measure, in the same setting: to “RNA1{[moe](G)[sp].[moe](A)[sp].[moe](A)[sp].[moe](G)[sp].d(C)[sp].d(G)[sp].d(A)[sp].d(A)[sp].d(G)[sp].d(T)[sp].d(G)[sp].d(C)[sp].d(A)[sp].[moe](C)[sp].[moe](A)[sp].[moe](C)}$$$$V2.0” belongs 48% and 59%; to “RNA1{[moe](A)[sp].[moe](A)[sp].[moe](T)[sp].[moe](T)[sp].[moe](T)[sp].[moe](A)[sp].d(T)[sp].d(G)[sp].d(C)[sp].d(C)[sp].d(T)[sp].d(A)[sp].d(C)[sp].d(A)[sp].d(G)[sp].[moe](C)[sp].[moe](C)}$$$$V2.0”, 53% and 48%; to “RNA1{[moe](T)[sp].[cEt](T)[sp].d(T)[sp].d(A)[sp].d(T)[sp].d(G)[sp].d(C)[sp].d(C)[sp].d(T)[sp].d(A)[sp].d(C)[sp].d(A)[sp].[cEt](G)[sp].[moe](C)[sp].[cEt](C)[sp].[moe](T)}$$$$V2.0”, 8% and 1%.
Turning to “RNA1{[moe](G)[sp].[moe](A)[sp].[moe](G)[sp].[moe](G)[sp].[moe](C)[sp].[moe](A)[sp].d(T)[sp].d(A)[sp].d(G)[sp].d(C)[sp].d(A)[sp].d(G)[sp].d(C)[sp].d(A)[sp].d(G)[sp].[moe](G)[sp].[moe](A)}$$$$V2.0”, the target mRNA inhibition (HepG2, 0.07 µM) was 61% and 45%.
Consider “RNA1{[moe](A)[sp].[moe](A)[sp].[moe](C)[sp].[moe](C)[sp].[moe](A)[sp].d(C)[sp].d(T)[sp].d(G)[sp].d(A)[sp].d(A)[sp].d(C)[sp].d(A)[sp].d(A)[sp].d(A)[sp].[moe](T)[sp].[moe](G)}$$$$V2.0”, for which the target mRNA inhibition (HepG2, 0.07 µM) is 24% and 20%.
Same read-out and setting: to “RNA1{[moe](G)[sp].[cEt](C)[sp].[cEt](A)[sp].d(G)[sp].d(A)[sp].d(G)[sp].d(G)[sp].d(T)[sp].d(G)[sp].d(A)[sp].d(A)[sp].d(G)[sp].d(C)[sp].[cEt](G)[sp].[cEt](A)[sp].[moe](A)}$$$$V2.0” belongs 70%; to “RNA1{[moe](A)[sp].[moe](C)[sp].d(G)[sp].d(G)[sp].d(G)[sp].d(C)[sp].d(A)[sp].d(A)[sp].d(C)[sp].d(A)[sp].d(T)[sp].[moe](A)[sp].[moe](C)[sp].[moe](C)[sp].[moe](T)[sp].[moe](T)[sp].[moe](G)}$$$$V2.0”, 46%; to “RNA1{[moe](G)[sp].[moe](A)[sp].[moe](G)[sp].[moe](G)[sp].d(T)[sp].d(G)[sp].d(A)[sp].d(A)[sp].d(G)[sp].d(C)[sp].d(G)[sp].d(A)[sp].d(A)[sp].[moe](G)[sp].[moe](T)[sp].[moe](G)}$$$$V2.0”, 14% and 26%.
In the case of “RNA1{[moe](G)[sp].[cEt](C)[sp].d(A)[sp].d(T)[sp].d(A)[sp].d(G)[sp].d(C)[sp].d(A)[sp].d(G)[sp].d(C)[sp].d(A)[sp].d(G)[sp].[cEt](G)[sp].[moe](A)[sp].[cEt](T)[sp].[moe](G)}$$$$V2.0”, the target mRNA inhibition (HepG2, 0.07 µM) is 76% and 78%.
On to “RNA1{[moe](A)[sp].[moe](A)[sp].[moe](G)[sp].[moe](A)[sp].d(T)[sp].d(G)[sp].d(A)[sp].d(G)[sp].d(G)[sp].d(C)[sp].d(A)[sp].d(T)[sp].d(A)[sp].[moe](G)[sp].[moe](C)[sp].[moe](A)[sp].[moe](G)}$$$$V2.0”, for which the target mRNA inhibition (HepG2, 0.07 µM) is 44% and 37%.
